Data taken from patent publication US20030211075A1 (priority 2001, published 2003).

Key:
[1] = system: H460 human non-small cell lung carcinoma; test: Anti-tumor effects, H460; type: in vivo, mouse; conditions: second treatment at 900 mm^3
Method: The tumor test systems were: i) L540 human Hodgkin's disease tumors growing in SCID mice; ii) C1300 Muγ (interferon-secreting) neuroblastoma growing in nu/nu mice; iii) H460 human non-small cell lung carcinoma growing in nu/nu mice. To establish solid tumors, 1.5×10^7 tumor cells were injected subcutaneously into the right anterior flank of SCID or BALB/c nu/nu mice (Charles River Labs., Wilmingham, Mass.). When the tumors had grown to various diameters, mice were assigned to different experimental groups, each containing 4 to 9 mice.
Other mice received equivalent quantities of bispecific antibody alone. The injections were performed over ˜45 seconds into one of the tail veins, followed by 200 μl of saline. The infusions were repeated six days later. Perpendicular tumor diameters were measured at regular intervals and tumor volumes were calculated.

[2] = system: C1300 mouse neuroblastoma; test: In vivo tumor thrombosis, C1300
Text: Tumor test systems were of four types: i) 3LL mouse lung carcinoma growing subcutaneously in C57BL/6 mice; ii) C1300 mouse neuroblastoma growing subcutaneously in BALB/c nu/nu mice; iii) HT29 human colorectal carcinoma growing subcutaneously in BALB/c nu/nu mice; and iv) C1300 Muγ mouse neuroblastoma growing subcutaneously in BALB/c nu/nu mice. The C1300 Muγ tumor is an interferon-y secreting transfectant derived from the C 1300 tumor (Watanabe et al., 1989).
To establish tumors, 10^6 to 1.5×10^7 tumor cells were injected subcutaneously into the right anterior flank of the mice. When tumors had grown to various sizes, mice were randomly assigned to different study groups. […] Fab′, or bispecific antibody. Other mice received equivalent quantities IgG, Fab′ or bispecific antibody alone. The injections were performed slowly into one of the tail veins over approximately 45 seconds, usually followed by 200 μl of saline.
Twenty-four hours after being injected with tTF or immunoglobulin-tTF conjugates, the mice were anesthetized with metophane and were exsanguinated by perfusion with heparinized saline. Tumors and normal tissues were excised and immediately fixed in 3% (v/v) formalin. Paraffin sections were cut and stained with hematoxylin and eosin. Blood vessels having open lumens containing erythrocytes and blood vessels containing thrombi were counted. […]

[3] = system: thrombin-antithrombin-complexes (TAT), antithrombin III (ATIII); test: Coagulation parameters in plasma three days after treatment; type: in vivo, mouse; conditions: tTF alone; plasma three days after i.v. treatment

For “tTF: extracellular domain of the mature Tissue Factor protein (amino acid 1-219), recombinant truncated human Tissue Factor”, the “tumor volume after second treatment” value [1] was 550 mm^3, the “thrombosis of tumor vessels” value ([2]; large tumors (>1000 mm^3), 24 hours after injection) was “virtually all vessels were thrombosed” and the “effect on tumor vessels” value ([2]; small (<500 mm^3) tumors) was “largely unaffected”. For the same substance, the “TAT” value [3] was 25.4 ng/mL.
